Where a name gives a salt, the structure may show the parent alone. Read-outs that look alike come from different tables or passages of the source.
Target: IRAK4 (Homo sapiens (Human), UniProt Q9NWZ3)
Assay: IRAK4 kinase activity, IMAP fluorescence polarization assay
Format: biochemical
Details: 100 μM ATP, read-out: IRAK4 IC50
How it was run: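 GST-tagged IRAK4 at 0.5 nM phosphorylates 100 nM fluorescent peptide substrate with 100 μM ATP in pH 7.2 Tris buffer containing MgCl2, DTT and Tween 20, 30 min at 25 °C. Reaction stopped with IMAP binding reagent; phosphorylation read as increased fluorescence polarization.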

Chain of IRAK4 (Q9NWZ3 whole entry): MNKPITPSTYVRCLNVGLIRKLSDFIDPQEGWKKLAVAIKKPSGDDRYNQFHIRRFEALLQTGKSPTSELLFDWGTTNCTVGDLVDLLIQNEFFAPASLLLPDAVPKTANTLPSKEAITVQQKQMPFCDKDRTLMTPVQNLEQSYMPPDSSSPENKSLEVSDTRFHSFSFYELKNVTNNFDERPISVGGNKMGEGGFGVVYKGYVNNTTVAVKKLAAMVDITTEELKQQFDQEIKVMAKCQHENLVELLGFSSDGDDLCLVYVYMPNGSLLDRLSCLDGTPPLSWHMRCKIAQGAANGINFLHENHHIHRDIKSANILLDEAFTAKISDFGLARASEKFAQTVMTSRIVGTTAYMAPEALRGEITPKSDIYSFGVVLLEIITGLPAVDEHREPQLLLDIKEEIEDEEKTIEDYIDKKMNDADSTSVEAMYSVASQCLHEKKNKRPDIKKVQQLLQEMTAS

SMILES	IC50 (0.5 nM GST tagged IRAK4)	IC50
O=c1[nH]c(N2CCCC2)nc(N[C@@H]2CCCNC2)c1-c1ccc2ccccc2n1 [Example 114, (R)-6-(piperidin-3-ylamino)-2-(pyrrolidin-1-yl)-5-(quinolin-2-yl)pyrimidin-4(3H)-one.HCl]	24 nM	–
O=c1[nH]c(N2CCCCC2)nc(N[C@@H]2CCCNC2)c1-c1ccc2ccccc2n1 [Example 115, (R)-2-(piperidin-1-yl)-6-(piperidin-3-ylamino)-5-(quinolin-2-yl)pyrimidin-4(3H)-one.HCl]	54 nM	–
CN1CCN(c2nc(N[C@@H]3CCCNC3)c(-c3ccc4ccccc4n3)c(=O)[nH]2)CC1 [Example 116, (R)-2-(4-methylpiperazin-1-yl)-6-(piperidin-3-ylamino)-5-(quinolin-2-yl)pyrimidin-4(3H)-one.HCl]	97 nM	–
O=c1[nH]c(N2CCCCC2)nc(N[C@@H]2CCCNC2)c1-c1nc2c(C3CC3)nccc2s1 [Example 117, (R)-5-(4-cyclopropylthiazolo[4,5-c]pyridin-2-yl)-2-(piperidin-1-yl)-6-(piperidin-3-ylamino)pyrimidin-4(3H)-one.HCl]	8.6 nM	–
CN1CCN(c2nc(N[C@@H]3CCCNC3)c(-c3nc4c(C5CC5)nccc4s3)c(=O)[nH]2)CC1 [Example 120, (R)-5-(4-cyclopropylthiazolo[4,5-c]pyridin-2-yl)-2-(4-methylpiperazin-1-yl)-6-(piperidin-3-ylamino)pyrimidin-4(3H)-one.HCl]	30 nM	–
O=c1[nH]c(N2CCOC(CCO)C2)nc(N[C@@H]2CCCNC2)c1-c1nc2ccccc2s1 (stereo partly drawn) [Example 129, 5-(benzo[d]thiazol-2-yl)-2-(2-(2-hydroxyethyl)morpholino)-6-((R)-piperidin-3-ylamino)pyrimidin-4(3H)-one]	–	57 nM
O=c1[nH]c(N2CCOC(C(F)(F)F)C2)nc(N[C@@H]2CCCNC2)c1-c1nc2ccccc2s1 (stereo partly drawn) [Example 130, 5-(benzo[d]thiazol-2-yl)-6-((R)-piperidin-3-ylamino)-2-(2-(trifluoromethyl)morpholino)pyrimidin-4(3H)-one]	–	201 nM
O=c1[nH]c(N2CCN(c3ccccn3)CC2)nc(N[C@@H]2CCCNC2)c1-c1nc2ccccc2s1 [Example 132, (R)-5-(benzo[d]thiazol-2-yl)-6-(piperidin-3-ylamino)-2-(4-(pyridin-2-yl)piperazin-1-yl)pyrimidin-4(3H)-one]	–	8 nM

More lines, now with the values ahead:

IC50 (0.5 nM GST tagged IRAK4)	IC50	SMILES
12 nM	–	O=c1[nH]c(N2CCOCC2)nc(N[C@@H]2CCCNC2)c1-c1nc2cnccc2s1 [Example 113, (R)-2-morpholino-6-(piperidin-3-ylamino)-5-(thiazolo[4,5-c]pyridin-2-yl)pyrimidin-4(3H)-one.HCl]
14 nM	–	O=c1[nH]c(N2CCCC2)nc(N[C@@H]2CCCNC2)c1-c1nc2c(C3CC3)nccc2s1 [Example 118, (R)-5-(4-cyclopropylthiazolo[4,5-c]pyridin-2-yl)-6-(piperidin-3-ylamino)-2-(pyrrolidin-1-yl)pyrimidin-4(3H)-one.HCl]
–	864 nM	O=c1[nH]c(N2CCOCC2CO)nc(N[C@@H]2CCCNC2)c1-c1nc2ccccc2s1 (stereo partly drawn) [Example 125, 5-(benzo[d]thiazol-2-yl)-2-(3-(hydroxymethyl)morpholino)-6-((R)-piperidin-3-ylamino)pyrimidin-4(3H)-one]
–	97 nM	CC1CN(c2nc(N[C@@H]3CCCNC3)c(-c3nc4ccccc4s3)c(=O)[nH]2)CCO1 (stereo partly drawn) [Example 126, 5-(benzo[d]thiazol-2-yl)-2-(2-methylmorpholino)-6-((R)-piperidin-3-ylamino)pyrimidin-4(3H)-one]
–	1690 nM	C[C@@H]1COCCN1c1nc(N[C@@H]2CCCNC2)c(-c2nc3ccccc3s2)c(=O)[nH]1 [Example 127]
–	431 nM	C[C@H]1COCCN1c1nc(N[C@@H]2CCCNC2)c(-c2nc3ccccc3s2)c(=O)[nH]1 [Example 128]
–	145 nM	CC1(C)CN(c2nc(N[C@@H]3CCCNC3)c(-c3nc4ccccc4s3)c(=O)[nH]2)CCO1 [Example 131, (R)-5-(benzo[d]thiazol-2-yl)-2-(2,2-dimethylmorpholino)-6-(piperidin-3-ylamino)pyrimidin-4(3H)-one]

Source: patent US9221809B2 (MERCK SHARP & DOHME CORP., priority 2011, dated 2015)
